2 molecules from paper PMC8617627, “Novel DYRK1A Inhibitor Rescues Learning and Memory Deficits in a Mouse Model of Down Syndrome” (Pharmaceuticals, 2021) can be followed below.

Each structure is given as a SMILES string. Read-outs that look alike come from different tables or passages of the source.

Usually remaining activity stands for the signal under treatment as a percentage of the control signal.

What all share (experiment): Kinase profile (33P ATP filter binding)
Holding throughout (assay type): biochemical

Test [1] addresses T1, Aurora A (Homo sapiens, UniProt O14965).
T1 sequence (O14965 1-403): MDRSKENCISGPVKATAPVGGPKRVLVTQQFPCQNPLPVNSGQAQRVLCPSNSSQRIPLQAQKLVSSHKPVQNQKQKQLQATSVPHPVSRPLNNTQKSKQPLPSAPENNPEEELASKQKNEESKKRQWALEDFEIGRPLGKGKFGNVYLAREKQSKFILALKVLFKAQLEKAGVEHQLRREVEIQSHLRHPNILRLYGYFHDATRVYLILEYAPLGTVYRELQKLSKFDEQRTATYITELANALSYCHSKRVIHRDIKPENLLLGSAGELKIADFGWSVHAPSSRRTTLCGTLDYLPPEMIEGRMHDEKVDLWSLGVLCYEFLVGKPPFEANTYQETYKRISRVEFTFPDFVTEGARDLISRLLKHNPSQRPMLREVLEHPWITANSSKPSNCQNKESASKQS
The settings on record: for remaining activity at 1 µM / remaining activity at 100 µM: read-out: Remaining protein kinase activity.

Test [2] addresses CK2 (Homo sapiens, UniProt P68400). To be noted: read-out: Remaining protein kinase activity.
Test [3] addresses T2, GCK (Homo sapiens, UniProt Q12851).
T2 sequence (Q12851 1-820): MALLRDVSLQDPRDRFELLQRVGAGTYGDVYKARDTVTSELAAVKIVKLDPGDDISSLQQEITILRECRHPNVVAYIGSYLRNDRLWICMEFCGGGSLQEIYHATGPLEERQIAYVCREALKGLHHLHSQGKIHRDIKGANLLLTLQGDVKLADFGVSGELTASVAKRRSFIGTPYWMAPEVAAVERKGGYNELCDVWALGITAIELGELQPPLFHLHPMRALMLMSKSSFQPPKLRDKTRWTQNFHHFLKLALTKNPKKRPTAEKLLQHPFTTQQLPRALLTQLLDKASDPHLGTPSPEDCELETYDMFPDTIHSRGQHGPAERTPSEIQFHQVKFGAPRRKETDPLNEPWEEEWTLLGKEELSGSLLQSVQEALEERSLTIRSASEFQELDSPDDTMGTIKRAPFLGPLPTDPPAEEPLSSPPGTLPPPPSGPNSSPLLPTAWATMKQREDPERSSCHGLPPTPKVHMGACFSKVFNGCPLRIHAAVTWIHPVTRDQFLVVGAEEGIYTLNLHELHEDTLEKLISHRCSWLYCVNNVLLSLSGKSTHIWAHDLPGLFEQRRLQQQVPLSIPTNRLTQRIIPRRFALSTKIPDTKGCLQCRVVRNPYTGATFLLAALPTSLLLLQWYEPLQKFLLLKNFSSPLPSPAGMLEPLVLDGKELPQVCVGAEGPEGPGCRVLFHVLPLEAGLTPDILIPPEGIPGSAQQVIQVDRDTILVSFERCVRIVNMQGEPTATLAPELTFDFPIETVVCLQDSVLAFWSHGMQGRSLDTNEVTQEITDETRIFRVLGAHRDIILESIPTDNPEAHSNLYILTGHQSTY
The settings on record: read-out: Remaining protein kinase activity.

For test [4], the target named is HER4 (Homo sapiens, UniProt Q15303). To be noted: read-out: Remaining protein kinase activity.
Test [5] addresses HIPK2 (Homo sapiens, UniProt Q9H2X6). The settings on record: read-out: Remaining protein kinase activity.
The target in test [6] is MKK1 (Homo sapiens, UniProt Q02750). The settings on record: read-out: Remaining protein kinase activity.
Test [7] has as its target PDGFRA (Homo sapiens, UniProt P16234). To be noted: read-out: Remaining protein kinase activity.
For test [8], the target named is PKBa (Homo sapiens, UniProt P31749). To be noted: read-out: Remaining protein kinase activity.
In test [9] the target is T3, TBK1 (Homo sapiens, UniProt Q9UHD2).
T3 sequence (Q9UHD2 1-729): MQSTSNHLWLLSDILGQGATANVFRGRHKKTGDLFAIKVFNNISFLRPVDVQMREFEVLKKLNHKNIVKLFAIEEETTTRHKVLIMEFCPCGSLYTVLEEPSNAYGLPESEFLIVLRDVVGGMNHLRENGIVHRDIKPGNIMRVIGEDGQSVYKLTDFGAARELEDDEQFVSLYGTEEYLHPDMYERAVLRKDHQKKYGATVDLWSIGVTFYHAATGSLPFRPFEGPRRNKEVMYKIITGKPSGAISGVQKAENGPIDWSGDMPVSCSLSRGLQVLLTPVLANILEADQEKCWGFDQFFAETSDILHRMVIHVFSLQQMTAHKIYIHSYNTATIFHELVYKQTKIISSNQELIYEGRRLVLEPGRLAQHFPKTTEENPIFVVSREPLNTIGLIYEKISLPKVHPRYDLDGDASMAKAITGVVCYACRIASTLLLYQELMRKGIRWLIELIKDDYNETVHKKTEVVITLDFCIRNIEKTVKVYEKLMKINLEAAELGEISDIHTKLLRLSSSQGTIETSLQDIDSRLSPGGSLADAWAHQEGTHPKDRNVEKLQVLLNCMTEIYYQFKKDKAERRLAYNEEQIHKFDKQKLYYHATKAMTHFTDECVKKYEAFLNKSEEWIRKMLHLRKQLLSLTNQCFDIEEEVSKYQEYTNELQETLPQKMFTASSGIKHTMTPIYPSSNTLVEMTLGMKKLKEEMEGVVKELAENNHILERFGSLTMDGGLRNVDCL
The settings on record: read-out: Remaining protein kinase activity.

The target in test [10] is p38b MAPK (Homo sapiens, UniProt Q15759). To be noted: read-out: Remaining protein kinase activity.
Chain of p38b MAPK (Q15759 whole entry): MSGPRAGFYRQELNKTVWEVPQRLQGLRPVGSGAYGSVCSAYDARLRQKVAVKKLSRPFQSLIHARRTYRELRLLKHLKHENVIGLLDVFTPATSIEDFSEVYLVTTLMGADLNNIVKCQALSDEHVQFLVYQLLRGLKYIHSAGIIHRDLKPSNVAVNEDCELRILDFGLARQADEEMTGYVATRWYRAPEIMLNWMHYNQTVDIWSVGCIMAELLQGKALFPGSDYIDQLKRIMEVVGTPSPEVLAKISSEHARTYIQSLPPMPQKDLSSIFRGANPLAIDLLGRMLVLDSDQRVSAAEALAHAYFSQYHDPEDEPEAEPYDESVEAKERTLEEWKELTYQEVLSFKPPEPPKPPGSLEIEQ

Chain of PKBa (P31749 whole entry): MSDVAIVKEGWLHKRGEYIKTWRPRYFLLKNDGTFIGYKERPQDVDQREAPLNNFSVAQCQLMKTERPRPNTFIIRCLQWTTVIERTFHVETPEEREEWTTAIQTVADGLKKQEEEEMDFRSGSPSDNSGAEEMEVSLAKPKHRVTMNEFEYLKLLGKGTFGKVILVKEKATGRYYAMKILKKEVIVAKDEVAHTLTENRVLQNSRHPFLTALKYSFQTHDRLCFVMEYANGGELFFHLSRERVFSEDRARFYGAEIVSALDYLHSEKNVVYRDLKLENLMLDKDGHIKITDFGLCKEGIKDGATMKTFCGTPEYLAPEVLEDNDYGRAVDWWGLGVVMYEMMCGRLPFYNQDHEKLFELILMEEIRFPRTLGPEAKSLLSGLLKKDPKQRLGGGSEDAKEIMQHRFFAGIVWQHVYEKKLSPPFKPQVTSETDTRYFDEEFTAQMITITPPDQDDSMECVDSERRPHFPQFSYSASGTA
Chain of CK2 (P68400 whole entry): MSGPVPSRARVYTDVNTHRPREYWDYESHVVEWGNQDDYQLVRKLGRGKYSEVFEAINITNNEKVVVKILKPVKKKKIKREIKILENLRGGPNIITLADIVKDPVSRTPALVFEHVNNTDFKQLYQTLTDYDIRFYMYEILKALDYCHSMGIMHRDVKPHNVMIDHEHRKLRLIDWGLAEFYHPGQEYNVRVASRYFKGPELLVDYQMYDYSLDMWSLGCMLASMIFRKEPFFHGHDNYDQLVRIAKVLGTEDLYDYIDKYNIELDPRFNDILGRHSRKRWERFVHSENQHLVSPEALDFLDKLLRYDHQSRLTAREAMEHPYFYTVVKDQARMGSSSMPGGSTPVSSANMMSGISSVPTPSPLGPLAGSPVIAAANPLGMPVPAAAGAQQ
Chain of MKK1 (Q02750 whole entry, species assumed): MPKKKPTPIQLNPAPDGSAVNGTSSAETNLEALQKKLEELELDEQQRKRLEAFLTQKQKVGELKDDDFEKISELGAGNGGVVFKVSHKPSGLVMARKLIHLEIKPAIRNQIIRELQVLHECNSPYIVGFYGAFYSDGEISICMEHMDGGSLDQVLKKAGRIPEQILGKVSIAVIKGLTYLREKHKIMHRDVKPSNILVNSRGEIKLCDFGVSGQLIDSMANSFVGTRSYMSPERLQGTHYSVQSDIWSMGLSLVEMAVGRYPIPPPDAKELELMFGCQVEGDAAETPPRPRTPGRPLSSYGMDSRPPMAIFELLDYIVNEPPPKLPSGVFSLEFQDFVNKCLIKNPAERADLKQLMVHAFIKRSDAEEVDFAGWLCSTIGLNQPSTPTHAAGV
Chain of HIPK2 (Q9H2X6 whole entry): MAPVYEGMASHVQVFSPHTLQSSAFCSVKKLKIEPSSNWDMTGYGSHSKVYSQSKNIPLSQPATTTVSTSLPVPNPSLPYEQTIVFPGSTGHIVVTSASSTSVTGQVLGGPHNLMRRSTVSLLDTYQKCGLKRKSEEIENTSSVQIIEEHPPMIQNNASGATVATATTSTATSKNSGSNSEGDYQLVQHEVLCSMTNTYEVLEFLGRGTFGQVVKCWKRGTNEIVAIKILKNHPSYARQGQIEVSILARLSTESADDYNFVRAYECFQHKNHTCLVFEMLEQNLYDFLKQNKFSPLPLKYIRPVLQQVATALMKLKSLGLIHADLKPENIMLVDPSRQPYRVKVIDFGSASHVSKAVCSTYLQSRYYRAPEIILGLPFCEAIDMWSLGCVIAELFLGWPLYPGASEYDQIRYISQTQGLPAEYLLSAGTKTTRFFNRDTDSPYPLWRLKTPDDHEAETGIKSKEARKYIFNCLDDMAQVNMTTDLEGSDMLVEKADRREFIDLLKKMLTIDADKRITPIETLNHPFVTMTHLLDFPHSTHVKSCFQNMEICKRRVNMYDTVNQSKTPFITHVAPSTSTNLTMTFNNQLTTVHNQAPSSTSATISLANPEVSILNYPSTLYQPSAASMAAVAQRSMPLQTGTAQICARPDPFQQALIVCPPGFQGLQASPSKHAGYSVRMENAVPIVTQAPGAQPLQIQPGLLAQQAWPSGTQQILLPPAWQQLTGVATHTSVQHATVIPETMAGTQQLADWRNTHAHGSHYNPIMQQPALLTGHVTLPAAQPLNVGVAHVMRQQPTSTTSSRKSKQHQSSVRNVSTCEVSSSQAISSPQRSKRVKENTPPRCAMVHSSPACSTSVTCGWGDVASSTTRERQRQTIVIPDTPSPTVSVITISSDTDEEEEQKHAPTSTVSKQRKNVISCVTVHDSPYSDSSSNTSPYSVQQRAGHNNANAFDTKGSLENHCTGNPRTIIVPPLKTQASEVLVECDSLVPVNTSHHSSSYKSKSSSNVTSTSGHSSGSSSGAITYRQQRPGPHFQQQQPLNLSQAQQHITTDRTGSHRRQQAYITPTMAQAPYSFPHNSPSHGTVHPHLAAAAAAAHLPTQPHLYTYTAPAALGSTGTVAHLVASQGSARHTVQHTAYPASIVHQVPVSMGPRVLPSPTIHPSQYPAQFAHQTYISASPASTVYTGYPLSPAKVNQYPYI
Chain of HER4 (Q15303 26-1308): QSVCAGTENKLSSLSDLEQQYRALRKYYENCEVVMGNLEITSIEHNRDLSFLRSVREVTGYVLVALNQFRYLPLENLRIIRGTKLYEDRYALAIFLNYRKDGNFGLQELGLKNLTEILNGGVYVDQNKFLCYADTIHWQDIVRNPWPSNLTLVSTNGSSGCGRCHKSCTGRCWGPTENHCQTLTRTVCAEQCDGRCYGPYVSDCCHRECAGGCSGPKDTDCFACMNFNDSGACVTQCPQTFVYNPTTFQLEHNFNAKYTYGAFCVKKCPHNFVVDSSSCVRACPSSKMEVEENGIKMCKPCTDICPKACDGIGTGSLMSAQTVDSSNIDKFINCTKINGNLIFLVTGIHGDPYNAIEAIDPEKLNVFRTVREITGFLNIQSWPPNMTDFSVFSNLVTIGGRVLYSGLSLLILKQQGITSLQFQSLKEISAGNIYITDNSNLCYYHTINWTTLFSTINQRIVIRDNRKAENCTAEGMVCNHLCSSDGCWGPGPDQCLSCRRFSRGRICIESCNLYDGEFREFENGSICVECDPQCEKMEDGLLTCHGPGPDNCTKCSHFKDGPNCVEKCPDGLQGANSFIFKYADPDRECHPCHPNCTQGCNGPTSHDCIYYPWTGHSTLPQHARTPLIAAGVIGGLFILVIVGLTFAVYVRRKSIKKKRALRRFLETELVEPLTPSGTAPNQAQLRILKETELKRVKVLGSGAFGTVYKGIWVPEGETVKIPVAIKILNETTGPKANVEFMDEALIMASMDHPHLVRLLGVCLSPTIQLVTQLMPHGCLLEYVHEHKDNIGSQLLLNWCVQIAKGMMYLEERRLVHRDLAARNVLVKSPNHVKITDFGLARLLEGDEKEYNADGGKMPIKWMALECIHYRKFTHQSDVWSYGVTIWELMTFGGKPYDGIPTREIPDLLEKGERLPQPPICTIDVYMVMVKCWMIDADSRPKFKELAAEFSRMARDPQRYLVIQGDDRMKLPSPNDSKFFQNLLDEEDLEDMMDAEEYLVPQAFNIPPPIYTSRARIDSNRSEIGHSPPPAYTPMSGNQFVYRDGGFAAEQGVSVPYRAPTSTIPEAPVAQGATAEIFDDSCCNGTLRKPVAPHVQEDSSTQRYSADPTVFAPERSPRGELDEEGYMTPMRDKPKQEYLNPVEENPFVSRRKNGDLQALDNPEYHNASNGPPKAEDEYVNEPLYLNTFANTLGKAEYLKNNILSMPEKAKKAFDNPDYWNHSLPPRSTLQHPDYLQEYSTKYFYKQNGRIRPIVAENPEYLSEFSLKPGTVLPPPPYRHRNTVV

With `COc1ccc2sc(-c3cncc(NC(C)=O)c3)nc2c1` [PST-001, N-(5-(5-Methoxybenzo[d]thiazol-2-yl)pyridin-3-yl)acetamide], in test [1] (in words), the “Effect on Aurora A” value was “moderately activated”. Besides, the remaining activity at 1 µM amounted to 133% in test [1]; 102% in test [2]; 118% in test [3]; 103% in [4]; 90% in [5]; 117% in test [6]. For the same molecule, the values for the remaining activity at 1 µM in [7], in test [8] and in test [9] were 100%, 116% and 119%, respectively. In addition, the remaining activity at 100 µM in [1] was determined as 136%; in [2] (CK2), 95%; in [3], 123%; in test [4] it was 94%; in test [5], 77%; in [6], 135%. Besides, the remaining activity at 100 µM in test [7] was determined as 73%; in test [8] it was 106%; in test [9] it was 104%; in test [10] it was 115%.

For `COc1ccc2sc(-c3cncc(N)c3)nc2c1` [compound 1, 5-(5-Methoxybenzo[d]thiazol-2-yl)pyridin-3-amine], the remaining activity at 1 µM in [1] (Aurora A, 1 μM) amounted to 132%; in test [2] (CK2, 1 μM) it was 103%; in test [3] (GCK, 1 μM) it was 105%; in test [4] (HER4, 1 μM) it was 104%; in test [5] (HIPK2, 1 μM), 79%; in [6] (MKK1, 1 μM), 101%. Further, the remaining activity at 1 µM was 101% in test [7] (PDGFRA, 1 μM); 120% in test [8] (PKBa, 1 μM); 105% in test [9] (TBK1, 1 μM); 119% in test [10] (p38b MAPK, 1 μM). In addition, the remaining activity at 100 µM is 97% in [1] (Aurora A, 100 μM); 21% in test [2] (CK2); 28% in test [3] (GCK, 100 μM); 16% in test [4] (HER4, 100 μM); 10% in [5] (HIPK2, 100 μM); 84% in [6] (MKK1, 100 μM). The remaining activity at 100 µM is 26% in [7] (PDGFRA, 100 μM); 72% in [8] (PKBa, 100 μM); 60% in test [9] (TBK1, 100 μM); 101% in [10] (p38b MAPK, 100 μM).
